# Data: the NIST ThermoML archive (doi:10.1007/s10765-014-1598-0)
# Numbers after ± are expanded uncertainties.
# Columns and labels:
# [1] = wn = mass fraction of the nth substance listed; conditions: Liquid, Parallel plate method
# [2] = Liquid, Parallel plate method
smiles,measurement,setting,value
O [water] + O=P(O)(O)O,thermal conductivity,"[1]; 292.04 K, 101 kPa, w2 = 0",0.596 ± 0.025 W/m/K
same,thermal conductivity,"[1]; 292.37 K, 5000 kPa, w2 = 0",0.599 ± 0.025 W/m/K
same,thermal conductivity,"[1]; 292.41 K, 15000 kPa, w2 = 0",0.606 ± 0.025 W/m/K
same,thermal conductivity,"[1]; 301.85 K, 101 kPa, w2 = 0",0.612 ± 0.026 W/m/K
same,thermal conductivity,"[1]; 308.34 K, 101 kPa, w2 = 0",0.622 ± 0.026 W/m/K
same,thermal conductivity,"[1]; 313.16 K, 5000 kPa, w2 = 0",0.634 ± 0.026 W/m/K
same,thermal conductivity,"[1]; 313.35 K, 15000 kPa, w2 = 0",0.636 ± 0.027 W/m/K
same,thermal conductivity,"[1]; 318.33 K, 101 kPa, w2 = 0",0.634 ± 0.026 W/m/K
same,thermal conductivity,"[1]; 327.48 K, 101 kPa, w2 = 0",0.645 ± 0.027 W/m/K
same,thermal conductivity,"[1]; 332.62 K, 15000 kPa, w2 = 0",0.657 ± 0.027 W/m/K
same,thermal conductivity,"[1]; 332.85 K, 5000 kPa, w2 = 0",0.656 ± 0.027 W/m/K
same,thermal conductivity,"[1]; 337.32 K, 101 kPa, w2 = 0",0.655 ± 0.027 W/m/K
same,thermal conductivity,"[1]; 346.93 K, 101 kPa, w2 = 0",0.662 ± 0.028 W/m/K
same,thermal conductivity,"[1]; 351.91 K, 5000 kPa, w2 = 0",0.671 ± 0.028 W/m/K
same,thermal conductivity,"[1]; 353.17 K, 15000 kPa, w2 = 0",0.673 ± 0.028 W/m/K
same,thermal conductivity,"[1]; 356.69 K, 101 kPa, w2 = 0",0.668 ± 0.028 W/m/K
same,thermal conductivity,"[1]; 364.08 K, 5000 kPa, w2 = 0",0.679 ± 0.028 W/m/K
same,thermal conductivity,"[1]; 364.53 K, 15000 kPa, w2 = 0",0.682 ± 0.028 W/m/K
same,thermal conductivity,"[1]; 371.79 K, 101 kPa, w2 = 0",0.677 ± 0.028 W/m/K
same,thermal conductivity,"[1]; 382.36 K, 15000 kPa, w2 = 0",0.688 ± 0.029 W/m/K
same,thermal conductivity,"[1]; 382.41 K, 5000 kPa, w2 = 0",0.686 ± 0.029 W/m/K
same,thermal conductivity,"[1]; 398.77 K, 5000 kPa, w2 = 0",0.688 ± 0.029 W/m/K
same,thermal conductivity,"[1]; 399.64 K, 15000 kPa, w2 = 0",0.691 ± 0.029 W/m/K
O [water],thermal conductivity,"[2]; 292.04 K, 101 kPa",0.596 ± 0.025 W/m/K
same,thermal conductivity,"[2]; 292.37 K, 5000 kPa",0.599 ± 0.025 W/m/K
same,thermal conductivity,"[2]; 292.41 K, 15000 kPa",0.606 ± 0.025 W/m/K
same,thermal conductivity,"[2]; 301.85 K, 101 kPa",0.612 ± 0.026 W/m/K
same,thermal conductivity,"[2]; 308.34 K, 101 kPa",0.622 ± 0.026 W/m/K
same,thermal conductivity,"[2]; 313.16 K, 5000 kPa",0.634 ± 0.026 W/m/K
same,thermal conductivity,"[2]; 313.35 K, 15000 kPa",0.636 ± 0.027 W/m/K
same,thermal conductivity,"[2]; 318.33 K, 101 kPa",0.634 ± 0.026 W/m/K
same,thermal conductivity,"[2]; 327.48 K, 101 kPa",0.645 ± 0.027 W/m/K
same,thermal conductivity,"[2]; 332.62 K, 15000 kPa",0.657 ± 0.027 W/m/K
same,thermal conductivity,"[2]; 332.85 K, 5000 kPa",0.656 ± 0.027 W/m/K
same,thermal conductivity,"[2]; 337.32 K, 101 kPa",0.655 ± 0.027 W/m/K
same,thermal conductivity,"[2]; 346.93 K, 101 kPa",0.662 ± 0.028 W/m/K
same,thermal conductivity,"[2]; 351.91 K, 5000 kPa",0.671 ± 0.028 W/m/K
same,thermal conductivity,"[2]; 353.17 K, 15000 kPa",0.673 ± 0.028 W/m/K
same,thermal conductivity,"[2]; 356.69 K, 101 kPa",0.668 ± 0.028 W/m/K
same,thermal conductivity,"[2]; 364.08 K, 5000 kPa",0.679 ± 0.028 W/m/K
same,thermal conductivity,"[2]; 364.53 K, 15000 kPa",0.682 ± 0.028 W/m/K
same,thermal conductivity,"[2]; 371.79 K, 101 kPa",0.677 ± 0.028 W/m/K
same,thermal conductivity,"[2]; 382.36 K, 15000 kPa",0.688 ± 0.029 W/m/K
same,thermal conductivity,"[2]; 382.41 K, 5000 kPa",0.686 ± 0.029 W/m/K
same,thermal conductivity,"[2]; 398.77 K, 5000 kPa",0.688 ± 0.029 W/m/K
same,thermal conductivity,"[2]; 399.64 K, 15000 kPa",0.691 ± 0.029 W/m/K
O=P(O)(O)O [phosphoric acid] + O,thermal conductivity,"[1]; 291.42 K, 5000 kPa, w1 = 0.08",0.568 ± 0.024 W/m/K
same,thermal conductivity,"[1]; 291.7 K, 15000 kPa, w1 = 0.08",0.578 ± 0.024 W/m/K
same,thermal conductivity,"[1]; 292.71 K, 101 kPa, w1 = 0.5",0.482 ± 0.02 W/m/K
same,thermal conductivity,"[1]; 293.15 K, 15000 kPa, w1 = 0.5",0.498 ± 0.021 W/m/K
same,thermal conductivity,"[1]; 293.16 K, 101 kPa, w1 = 0.08",0.566 ± 0.024 W/m/K
same,thermal conductivity,"[1]; 293.26 K, 5000 kPa, w1 = 0.5",0.489 ± 0.02 W/m/K
same,thermal conductivity,"[1]; 294.15 K, 5000 kPa, w1 = 0.155",0.545 ± 0.023 W/m/K
same,thermal conductivity,"[1]; 294.23 K, 15000 kPa, w1 = 0.155",0.556 ± 0.023 W/m/K
same,thermal conductivity,"[1]; 294.32 K, 101 kPa, w1 = 0.155",0.529 ± 0.022 W/m/K
same,thermal conductivity,"[1]; 298.48 K, 101 kPa, w1 = 0.08",0.575 ± 0.024 W/m/K
same,thermal conductivity,"[1]; 300.86 K, 101 kPa, w1 = 0.5",0.493 ± 0.021 W/m/K
same,thermal conductivity,"[1]; 303.03 K, 101 kPa, w1 = 0.155",0.545 ± 0.023 W/m/K
same,thermal conductivity,"[1]; 310.72 K, 5000 kPa, w1 = 0.155",0.568 ± 0.024 W/m/K
same,thermal conductivity,"[1]; 310.89 K, 15000 kPa, w1 = 0.155",0.58 ± 0.024 W/m/K
same,thermal conductivity,"[1]; 312.81 K, 15000 kPa, w1 = 0.5",0.525 ± 0.022 W/m/K
same,thermal conductivity,"[1]; 313.19 K, 5000 kPa, w1 = 0.5",0.516 ± 0.022 W/m/K
same,thermal conductivity,"[1]; 313.91 K, 101 kPa, w1 = 0.08",0.597 ± 0.025 W/m/K
same,thermal conductivity,"[1]; 313.94 K, 101 kPa, w1 = 0.155",0.561 ± 0.023 W/m/K
same,thermal conductivity,"[1]; 314.07 K, 101 kPa, w1 = 0.155",0.563 ± 0.024 W/m/K
same,thermal conductivity,"[1]; 315.13 K, 101 kPa, w1 = 0.5",0.514 ± 0.021 W/m/K
same,thermal conductivity,"[1]; 315.16 K, 5000 kPa, w1 = 0.08",0.609 ± 0.025 W/m/K
same,thermal conductivity,"[1]; 315.18 K, 15000 kPa, w1 = 0.08",0.613 ± 0.026 W/m/K
same,thermal conductivity,"[1]; 320.54 K, 101 kPa, w1 = 0.08",0.607 ± 0.025 W/m/K
same,thermal conductivity,"[1]; 321.54 K, 101 kPa, w1 = 0.155",0.571 ± 0.024 W/m/K
same,thermal conductivity,"[1]; 329.59 K, 101 kPa, w1 = 0.5",0.53 ± 0.022 W/m/K
same,thermal conductivity,"[1]; 330.24 K, 15000 kPa, w1 = 0.5",0.545 ± 0.023 W/m/K
same,thermal conductivity,"[1]; 330.25 K, 101 kPa, w1 = 0.155",0.582 ± 0.024 W/m/K
same,thermal conductivity,"[1]; 330.43 K, 5000 kPa, w1 = 0.5",0.54 ± 0.023 W/m/K
same,thermal conductivity,"[1]; 332.5 K, 15000 kPa, w1 = 0.155",0.605 ± 0.025 W/m/K
same,thermal conductivity,"[1]; 332.65 K, 5000 kPa, w1 = 0.155",0.592 ± 0.025 W/m/K
same,thermal conductivity,"[1]; 334.07 K, 5000 kPa, w1 = 0.08",0.633 ± 0.026 W/m/K
same,thermal conductivity,"[1]; 334.29 K, 15000 kPa, w1 = 0.08",0.641 ± 0.027 W/m/K
same,thermal conductivity,"[1]; 339.46 K, 101 kPa, w1 = 0.5",0.538 ± 0.022 W/m/K
same,thermal conductivity,"[1]; 342.35 K, 101 kPa, w1 = 0.155",0.598 ± 0.025 W/m/K
same,thermal conductivity,"[1]; 342.83 K, 101 kPa, w1 = 0.08",0.63 ± 0.026 W/m/K
same,thermal conductivity,"[1]; 343.21 K, 101 kPa, w1 = 0.155",0.599 ± 0.025 W/m/K
same,thermal conductivity,"[1]; 345.9 K, 101 kPa, w1 = 0.08",0.634 ± 0.026 W/m/K
same,thermal conductivity,"[1]; 350.37 K, 15000 kPa, w1 = 0.08",0.654 ± 0.027 W/m/K
same,thermal conductivity,"[1]; 350.49 K, 5000 kPa, w1 = 0.08",0.646 ± 0.027 W/m/K
same,thermal conductivity,"[1]; 352.63 K, 15000 kPa, w1 = 0.5",0.566 ± 0.024 W/m/K
same,thermal conductivity,"[1]; 352.82 K, 5000 kPa, w1 = 0.5",0.569 ± 0.024 W/m/K
same,thermal conductivity,"[1]; 352.88 K, 101 kPa, w1 = 0.155",0.607 ± 0.025 W/m/K
same,thermal conductivity,"[1]; 353.04 K, 5000 kPa, w1 = 0.155",0.615 ± 0.026 W/m/K
same,thermal conductivity,"[1]; 353.17 K, 15000 kPa, w1 = 0.155",0.622 ± 0.026 W/m/K
same,thermal conductivity,"[1]; 354.94 K, 101 kPa, w1 = 0.5",0.55 ± 0.023 W/m/K
same,thermal conductivity,"[1]; 355.76 K, 101 kPa, w1 = 0.08",0.642 ± 0.027 W/m/K
same,thermal conductivity,"[1]; 360.16 K, 101 kPa, w1 = 0.155",0.613 ± 0.026 W/m/K
same,thermal conductivity,"[1]; 360.21 K, 101 kPa, w1 = 0.155",0.614 ± 0.026 W/m/K
same,thermal conductivity,"[1]; 363.17 K, 5000 kPa, w1 = 0.5",0.564 ± 0.024 W/m/K
same,thermal conductivity,"[1]; 363.2 K, 15000 kPa, w1 = 0.5",0.572 ± 0.024 W/m/K
same,thermal conductivity,"[1]; 364.06 K, 15000 kPa, w1 = 0.155",0.632 ± 0.026 W/m/K
same,thermal conductivity,"[1]; 364.17 K, 5000 kPa, w1 = 0.155",0.626 ± 0.026 W/m/K
same,thermal conductivity,"[1]; 364.98 K, 15000 kPa, w1 = 0.08",0.666 ± 0.028 W/m/K
same,thermal conductivity,"[1]; 365.14 K, 5000 kPa, w1 = 0.08",0.667 ± 0.028 W/m/K
same,thermal conductivity,"[1]; 369.33 K, 101 kPa, w1 = 0.08",0.65 ± 0.027 W/m/K
same,thermal conductivity,"[1]; 370.07 K, 101 kPa, w1 = 0.155",0.618 ± 0.026 W/m/K
same,thermal conductivity,"[1]; 372.13 K, 101 kPa, w1 = 0.5",0.56 ± 0.023 W/m/K
same,thermal conductivity,"[1]; 380.77 K, 15000 kPa, w1 = 0.08",0.673 ± 0.028 W/m/K
same,thermal conductivity,"[1]; 380.93 K, 5000 kPa, w1 = 0.08",0.669 ± 0.028 W/m/K
same,thermal conductivity,"[1]; 383.41 K, 15000 kPa, w1 = 0.5",0.58 ± 0.024 W/m/K
same,thermal conductivity,"[1]; 383.52 K, 5000 kPa, w1 = 0.5",0.575 ± 0.024 W/m/K
same,thermal conductivity,"[1]; 385.14 K, 15000 kPa, w1 = 0.155",0.64 ± 0.027 W/m/K
same,thermal conductivity,"[1]; 385.31 K, 5000 kPa, w1 = 0.155",0.636 ± 0.027 W/m/K
same,thermal conductivity,"[1]; 397.89 K, 5000 kPa, w1 = 0.155",0.635 ± 0.026 W/m/K
same,thermal conductivity,"[1]; 399.66 K, 15000 kPa, w1 = 0.5",0.583 ± 0.024 W/m/K
same,thermal conductivity,"[1]; 399.84 K, 15000 kPa, w1 = 0.08",0.677 ± 0.028 W/m/K
same,thermal conductivity,"[1]; 400.05 K, 5000 kPa, w1 = 0.08",0.672 ± 0.028 W/m/K
same,thermal conductivity,"[1]; 400.07 K, 15000 kPa, w1 = 0.155",0.642 ± 0.027 W/m/K
same,thermal conductivity,"[1]; 400.18 K, 5000 kPa, w1 = 0.5",0.58 ± 0.024 W/m/K
